Experimental data taken from patent US4364944A, “Cephalosporins” (Dr. Karl Thomae Gesellschaft mit beschrankter Haftung, priority 1980, dated 1982).
Converted amounts (≈) assume the structure as drawn.

Test system: K. pneum. 1082 E
Assay: Minimum inhibiting concentration, serial dilution test in the microtiter system
Assay type: cell-based
Conditions: Klebsiella pneumoniae, 37° C., 18 to 20 hours
Method: (§1) These tests were performed using the serial dilution test in the microtiter system. The effect of the test compound on bacteriostasis was tested in a liquid medium at the following concentrations: 128, 64, 32, 16, 8, 4, 2, 1, 0.5, 0.25, 0.12 and 0.06 μgm/ml. The nutrient medium consisted of 10 gm of peptone, 8 gm of meat extract oxoid, 3 gm of sodium chloride, and 2 gm of sec. sodium phosphate diluted with distilled water to […] (pH 7.2-7.4). The age of the primary cultures was approximately 20 hours. The standardization of the bacteria suspension was effected using a photometer according to the method of Eppendorf (test tube .phi. 14 mm, filter 546 nm), using for comparison a barium sulfate suspension formed by the addition of 3.0 ml of 1% barium chloride solution to 97 ml of 1% sulfuric acid. After standardization, the test microorganisms were further diluted to a concentration of 1:1500, using a sodium chloride solution.
(§2) 16 mgm of the particular test compound were put into a 10 ml measuring flask, and the flask was subsequently filled to the mark with the solvent. The further dilution series was standardized with distilled water or the appropriate solvent.
(§3) The depressions of the microtiter plates were filled with 0.2 ml of nutrient medium. 0.01 ml of the appropriate test compound solution was then added, followed by inoculation with 0.1 ml (1 drop) of the standardized bacteria suspension. The bacteria were incubated at 37° C. for 18 to 20 hours. Control tests using only the solvent were carried out simultaneously.
(§4) The readings were made macroscopically to determine the minimum inhibitory concentration (the lowest still bacteriostatically effective concentration).

| SMILES | MIC [µg/mL] |
| --- | --- |
| Cn1nnnc1SCC1=C(C(=O)O)N2C(=O)[C@@H](NC(=O)C(NC(=O)Nc3cnc(NCc4ccc(S(N)(=O)=O)s4)nc3O)c3csc(N)n3)[C@H]2SC1 (stereo partly shown) [Compound 4] | 8 (≈ 9.87 µM) |

Test system: Pseud. BC 19
Assay: as above
Assay type: cell-based
Conditions: Pseudomonas aeruginosa, 37° C., 18 to 20 hours
Method: as §1, §2, §3, §4
(§5) Staphylococcus aureus SG 511, Escherichia coli ATCC 11 775, Pseudomonas aeruginosa hamburgensis and Pseudomonas aeruginosa BC 19, Serratia marcescens ATCC 13 800, Klebsiella pneumoniae ATCC 10031 and BC 6, Proteus mirabilis BC 17, Proteus rettgeri BC 7, Enterobacter Cloaceae ATCC 13047 and E. coli R+TEM (β-lactamase carrier).

| SMILES | MIC [µg/mL] |
| --- | --- |
| Cn1nnnc1SCC1=C(C(=O)O)N2C(=O)[C@@H](NC(=O)C(NC(=O)Nc3cnc(NCc4ccc(S(N)(=O)=O)s4)nc3O)c3csc(N)n3)[C@H]2SC1 (stereo partly shown) [Compound 4] | 8 (≈ 9.87 µM) |

Test system: Serr. marcesc. ATCC 13880
Assay: as above
Assay type: cell-based
Conditions: Serratia marcescens, ATCC13880, 37° C., 18 to 20 hours
Method: as §1, §2, §3, §4, §5

| SMILES | MIC [µg/mL] |
| --- | --- |
| Cn1nnnc1SCC1=C(C(=O)O)N2C(=O)[C@@H](NC(=O)C(NC(=O)Nc3cnc(NCc4ccc(S(N)(=O)=O)s4)nc3O)c3csc(N)n3)[C@H]2SC1 (stereo partly shown) [Compound 4] | 0.06 (≈ 0.074 µM) |

Test system: E. coli R + TEM
Assay: as above
Assay type: cell-based
Conditions: Escherichia coli, read-out: Minimum inhibiting concentration (MIC)
Method: as §1, §2, §3, §4, §5

| SMILES | MIC [µg/mL] |
| --- | --- |
| Cn1nnnc1SCC1=C(C(=O)O)N2C(=O)[C@@H](NC(=O)C(NC(=O)Nc3cnc(NCc4ccc(S(N)(=O)=O)s4)nc3O)c3csc(N)n3)[C@H]2SC1 (stereo partly shown) [Compound 4] | 0.25 (≈ 0.308 µM) |

Test system: E. coli ATCC 11775
Assay: as above
Assay type: cell-based
Conditions: Escherichia coli, ATCC11775, 37° C., 18 to 20 hours
Method: as §1, §2, §3, §4, §5

| SMILES | MIC [µg/mL] |
| --- | --- |
| Cn1nnnc1SCC1=C(C(=O)O)N2C(=O)[C@@H](NC(=O)C(NC(=O)Nc3cnc(NCc4ccc(S(N)(=O)=O)s4)nc3O)c3csc(N)n3)[C@H]2SC1 (stereo partly shown) [Compound 4] | 0.01 (≈ 0.0123 µM) |

Test system: Staph. aureus SG 511
Assay: as above
Assay type: cell-based
Conditions: Staphylococcus aureus, SG511, 37° C., 18 to 20 hours
Method: as §1, §2, §3, §4, §5

| SMILES | MIC [µg/mL] |
| --- | --- |
| Cn1nnnc1SCC1=C(C(=O)O)N2C(=O)[C@@H](NC(=O)C(NC(=O)Nc3cnc(NCc4ccc(S(N)(=O)=O)s4)nc3O)c3csc(N)n3)[C@H]2SC1 (stereo partly shown) [Compound 4] | 1 (≈ 1.23 µM) |

Test system: Kl. pneum. ATCC 10031
Assay: as above
Assay type: cell-based
Conditions: Klebsiella pneumoniae, ATCC10031, 37° C., 18 to 20 hours
Method: as §1, §2, §3, §4, §5

| SMILES | MIC [µg/mL] |
| --- | --- |
| Cn1nnnc1SCC1=C(C(=O)O)N2C(=O)[C@@H](NC(=O)C(NC(=O)Nc3cnc(NCc4ccc(S(N)(=O)=O)s4)nc3O)c3csc(N)n3)[C@H]2SC1 (stereo partly shown) [Compound 4] | 0.03 (≈ 0.037 µM) |

Test system: Kl. pneum. BC 6
Assay: as above
Assay type: cell-based
Conditions: Klebsiella pneumoniae, 37° C., 18 to 20 hours
Method: as §1, §2, §3, §4, §5

| SMILES | MIC [µg/mL] |
| --- | --- |
| Cn1nnnc1SCC1=C(C(=O)O)N2C(=O)[C@@H](NC(=O)C(NC(=O)Nc3cnc(NCc4ccc(S(N)(=O)=O)s4)nc3O)c3csc(N)n3)[C@H]2SC1 (stereo partly shown) [Compound 4] | 0.03 (≈ 0.037 µM) |

Test system: Prot. mirab. BC 17
Assay: as above
Assay type: cell-based
Conditions: Proteus mirabilis, 37° C., 18 to 20 hours
Method: as §1, §2, §3, §4, §5

| SMILES | MIC [µg/mL] |
| --- | --- |
| Cn1nnnc1SCC1=C(C(=O)O)N2C(=O)[C@@H](NC(=O)C(NC(=O)Nc3cnc(NCc4ccc(S(N)(=O)=O)s4)nc3O)c3csc(N)n3)[C@H]2SC1 (stereo partly shown) [Compound 4] | 0.01 (≈ 0.0123 µM) |

Test system: Ent. cloac. ATCC 13047
Assay: as above
Assay type: cell-based, Enterobacter Cloaceae
Conditions: Enterobacter, ATCC13047, 37° C., 18 to 20 hours
Method: as §1, §2, §3, §4, §5

| SMILES | MIC [µg/mL] |
| --- | --- |
| Cn1nnnc1SCC1=C(C(=O)O)N2C(=O)[C@@H](NC(=O)C(NC(=O)Nc3cnc(NCc4ccc(S(N)(=O)=O)s4)nc3O)c3csc(N)n3)[C@H]2SC1 (stereo partly shown) [Compound 4] | 0.06 (≈ 0.074 µM) |

Test system: Pseud. Hbg.
Assay: as above
Assay type: cell-based, Pseudomonas aeruginosa hamburgensis
Conditions: Pseudomonas aeruginosa, 37° C., 18 to 20 hours
Method: as §1, §2, §3, §4, §5

| SMILES | MIC [µg/mL] |
| --- | --- |
| Cn1nnnc1SCC1=C(C(=O)O)N2C(=O)[C@@H](NC(=O)C(NC(=O)Nc3cnc(NCc4ccc(S(N)(=O)=O)s4)nc3O)c3csc(N)n3)[C@H]2SC1 (stereo partly shown) [Compound 4] | 16 (≈ 19.7 µM) |

Test system: E. coli ATCC 11775
Assay: In vivo activity against experimental E. coli infection in mice
Design: species or system E. coli in female mice of the NMRI strain
Conditions: Escherichia coli, ATCC11775, sc, 168 h; s.c. administration once, 1 hour after i.p. infection; dose at which 50% of the animals survive; 7 days
Method: A few compounds of the invention and cefuroxim were tested in vivo against experimental infections in mice. E. coli ATCC 11775 was used as the pathogenic bacteria. An intraperitoneal infection was induced with 0.2 ml of a 5% mucin suspension of the bacteria. This corresponds to approximately 1.4×10^6 E. coli bacteria per mouse. Female mice of the NMRI strain were divided into groups of 10 animals, of which 2 groups remained untreated while the remaining groups were treated with various doses of the particular cephalosporin according to the invention for the purpose of determining the ED50 (dose at which 50% of the animals survive). The treatment was applied once (1 hour after infection). The observation period was 7 days. The results of these tests are shown in Table III below, where the numbering of the compounds again corresponds to that used in Table I.

| SMILES | ED50 [mg/kg] |
| --- | --- |
| Cn1nnnc1SCC1=C(C(=O)O)N2C(=O)[C@@H](NC(=O)C(NC(=O)Nc3cnc(NCc4ccc(S(N)(=O)=O)s4)nc3O)c3csc(N)n3)[C@H]2SC1 (stereo partly shown) [Compound 4] | < 0.5 |

Test system: Prot. rettg.
Assay: Minimum inhibiting concentration, serial dilution test in the microtiter system
Assay type: cell-based, Proteus rettgeri
Conditions: Providencia rettgeri, 37° C., 18 to 20 hours
Method: as §1, §2, §3, §4, §5

| SMILES | MIC [µg/mL] |
| --- | --- |
| Cn1nnnc1SCC1=C(C(=O)O)N2C(=O)[C@@H](NC(=O)C(NC(=O)Nc3cnc(NCc4ccc(S(N)(=O)=O)s4)nc3O)c3csc(N)n3)[C@H]2SC1 (stereo partly shown) [Compound 4] | 0.01 (≈ 0.0123 µM) |
